# Measured values from patent US11014908B2, “Chemical compounds” (Pfizer Inc., priority 2018, dated 2021).
# Key:
# HbS [1] = target: T1, HbS (Homo sapiens, UniProt P68871+P69905, E7V); test: 'R'-'T' assay (conversion of oxy HbS to deoxy HbS under deoxygenating conditions); format: biochemical; details: 50% inhibition of HbS 'R'-'T' conversion; 3 uM HbS, <1% O2
# T1 construct: HbS was obtained from the blood of homozygous S/S patients; from tissue; host or cells: red blood cells of homozygous S/S patients
# Method in brief: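 Oxy HbS diluted to 3 µM in 100 mM potassium phosphate pH 7.4, incubated 1 h at room temperature with compound, then held under <1% O2 for 2 h. Conversion followed by background-corrected 415/430 nm absorbance ratio at 0, 90 and 120 min; percent effect normalized to tucaresol, IC50 from concentration series.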
# HbS [2] = target: T1, HbS; test: HbS polymerization assay (delay time); format: biochemical; details: 0.15 mM HbS, n=3, vs DMSO; for Increase in DT for 25% HbS Occ: 0.075 mM compound
# Excerpt: This assay is used to determine the degree of inhibition of polymerization of HbS by compounds of the invention at varying degrees of HbS occupancy. The method used for the assay was adapted from that described in He and Russell (He, Z. and J. E. Russell, “A high-Throughput Microplate Method for Assessing Aggregation of Deoxygenated Hemoglobin S Heterotetramers in Vitro”, Anal Biochem 306(2): 349-352 (2002)).
# Purified HbS was exchanged into 1.25 M potassium phosphate, pH=7.4 and concentrated to 1.1 mM. The hemoglobin concentration was fixed at 0.15 mM, and the HbS was diluted to the appropriate concentration using 1.25 M potassium phosphate, pH=7.4. The compound of the invention was added to 0.15 mM HbS in the following concentrations: […], 0.075 mM (25%) and 0.15 mM (50%). As these compounds are ditopic binders, the concentration was doubled to calculate the % coverage, ie. 0.15*0.5=0.075*2=0.15. DMSO concentrations were matched for all compound concentrations, as well as no-compound control, and HbA. Following incubation, 33.5 μL of HbS solution was added to each well of a Costar 96-well half area plate. To induce deoxygenation, 16.5 μL of 1 M sodium dithionite, prepared in 1.25 M potassium phosphate, was added to each well for a final assay concentration of 330 mM, and mixed thoroughly. Fifty μL of mineral oil was overlaid over the solution in each well to prevent reoxygenation, and the plate was placed at 4° C. for five minutes. Following cold incubation, the plates were placed in a spectrophotometer that had been equilibrated at 37° C., to initiate the polymerization process (temperature jump). The reaction was monitored at 700 nm for 40 minutes, with data points collected every 30 seconds. Four wells were used for each condition, and the data averaged at every point for analysis. Data was analyzed using Graph Pad Prism, and the data was fit to a Boltzman sigmoidal equation, in which V50 (t1/2) was taken as the delay time. The percent change was calculated using the DMSO as the initial delay time. Error in percent change was compounded using the V50 errors generated when fit to the Boltzman sigmoidal equation.
# Delay in HbS polymerization, as measured by increasing delay time as a function of % HbS occupancy (% HbS Occ), is reported in Table 5 below as the increase in delay time (DT) for 10%, 25% and 50% HbS occupancy (n=3).
# [3] = system: Red Blood Cells (RBCs) from treated animals; test: Single dose study in sickle Townes mice: RBC sickling under hypoxia; format: in vivo, mouse; details: 0.5 h, SCD mice, n=3
# Protocol: (§1) In Vivo Studies Mouse Model
# (§2) The effect of the compounds of the invention was evaluated in-male sickle Townes mice in a single dose study. Compounds of the invention were administered in amounts set out in Tables 7, 8 and 9 that follow by oral gavage. Control mice received vehicle. Blood (50 μL) was drawn at 0.5 h, 1 h, 4 h, 7 h, 10 h, and 24 h. To measure exposure in whole blood, 20 μL sample was used. Blood drawn at 0.5 h was also evaluated for cell sickling.
# Red Blood Cells (RBCs) from treated animals were diluted to ˜10^7 cells/mL with 300 μL Hemeox solution in a 24-well plate and incubated in a hypoxia chamber, 5% CO2 and 3% O2 for 4 h. Cells were then fixed at room temperature for 30 minutes in sickling fixative solution and stained with TER119 alexa 488 conjugated antibody (BioLegend) for 30 minutes at room temperature, washed and plated at 50,000 cells/well with 200 μL of hemox buffer (TCS Scientific). Data were visualized using Graph Pad Prism (Version 5). Results are expressed as mean±standard error of the mean (SEM). Statistical analysis was made using a non-parametric one-way analysis of variance (ANOVA) followed by a Dunnett's multiple comparison. Significance was accepted when p<0.01.
# [4] = Single dose study in sickle Townes mice: exposure in whole blood; format: in vivo; details: male, Townes (sickle cell disease model), mouse, SCD mice, n=3
# Protocol: as §1, §2
# [5] = single dose 30 mg/kg oral gavage
# [6] = single dose 100 mg/kg oral gavage
# [7] = single dose 300 mg/kg oral gavage
# [8] = single dose 900 mg/kg oral gavage
# [9] = single dose 10 mg/kg oral gavage
# [10] = single dose 40 mg/kg oral gavage
# [11] = single dose 220 mg/kg oral gavage
# [12] = single dose 490 mg/kg oral gavage
SMILES,IC50 (HbS [1]),Increase in DT for 25% HbS Occ (HbS [2]),"% Change in RBC Sickling [3, 5]","% Change in RBC Sickling [3, 6]","% Change in RBC Sickling [3, 7]","% Change in RBC Sickling [3, 8]","concentration at 0.5 h [4, 5]","concentration at 0.5 h [4, 6]","concentration at 0.5 h [4, 7]","concentration at 0.5 h [4, 8]",Increase in DT for 10% HbS Occ (HbS [2]; 0.03 mM compound),Increase in DT for 50% HbS Occ (HbS [2]; 0.15 mM compound),"% Change in RBC Sickling [3, 9]","% Change in RBC Sickling [3, 10]","% Change in RBC Sickling [3, 11]","% Change in RBC Sickling [3, 12]","concentration at 0.5 h [4, 9]","concentration at 0.5 h [4, 10]","concentration at 0.5 h [4, 11]","concentration at 0.5 h [4, 12]"
"C[C@H](Oc1cc2cc(F)cc(F)c2nc1N)c1cc(C(=O)O)ccc1-n1cccn1 [Example 21, 3-{(1S)-1-[(2-amino-6,8-difluoroquinolin-3-yl)oxy]ethyl}-4-(1H-pyrazol-1-yl)benzoic Acid]",4.62 µM,64 ± 6%,2.03%,−0.02%,24.6%,29.0%,14.7 µM,303 µM,1140 µM,1500 µM,–,–,–,–,–,–,–,–,–,–
"C[C@H](Oc1cc2cc(F)ccc2nc1N)c1nc(O)ccc1-n1cccn1 [Example 58, 6-{(1S)-1-[(2-amino-6-fluoroquinolin-3-yl)oxy]ethyl}-5-(1H-pyrazol-1-yl)pyridin-2-ol]",4.8 µM,70 ± 8%,–,–,–,–,–,–,–,–,18 ± 5%,74 ± 21%,−6.2%,4.6%,50.8%,48.3%,35.8 µM,285 µM,1450 µM,2870 µM
